The nature of data set [1]: Inhibition of porcine brain CK1 delta/epsilon using RRKHAAIGpSAYSITA as substrate incubated for 30 mins in presence of [gamma-33 P] ATP by liquid scintillation counting analysis. Set-up: species or system Sus scrofa.
In data set [2] the target is Cyclin-dependent kinase 5/CDK5 activator 1 (Homo sapiens, UniProt Q00535). The class given is protein-complex assay.
The target in data set [3] is Glycogen synthase kinase-3 (Sus scrofa, UniProt B2LUN4+I6LNT8). Briefly: Inhibition of porcine brain GSK3alpha/beta using GS-1 as substrate incubated for 30 mins in presence of [gamma-33 P] ATP by liquid scintillation counting analysis.
Data set [4] addresses Dual specificity tyrosine-phosphorylation-regulated kinase 1A (Homo sapiens, UniProt Q13627). The data set can be described thus: Inhibition of GST-tagged human recombinant DYRK1A expressed in Escherichia coli using RS peptide as substrate incubated for 30 mins in presence of [gamma-33 P] ATP by liquid scintillation counting analysis.
Data set [5] concerns the target Dual specificity protein kinase CLK1 (Homo sapiens, UniProt P49759). The data set can be described thus: Inhibition of GST-tagged human recombinant CLK1 expressed in Escherichia coli using RS peptide as substrate incubated for 30 mins in presence of [gamma-33 P] ATP by liquid scintillation counting analysis.
A short description of data set [6]: Cytotoxicity against human KB cells assessed as growth inhibition at 1 uM after 72 hrs by MTS assay. The class given is toxicity, cell-based. On the technique in general: Tetrazolium assays rely on reduction of a dye to a coloured formazan, in cell work by metabolically active cells.

Sequence of Cyclin-dependent kinase 5/CDK5 activator 1 (Q00535 whole entry): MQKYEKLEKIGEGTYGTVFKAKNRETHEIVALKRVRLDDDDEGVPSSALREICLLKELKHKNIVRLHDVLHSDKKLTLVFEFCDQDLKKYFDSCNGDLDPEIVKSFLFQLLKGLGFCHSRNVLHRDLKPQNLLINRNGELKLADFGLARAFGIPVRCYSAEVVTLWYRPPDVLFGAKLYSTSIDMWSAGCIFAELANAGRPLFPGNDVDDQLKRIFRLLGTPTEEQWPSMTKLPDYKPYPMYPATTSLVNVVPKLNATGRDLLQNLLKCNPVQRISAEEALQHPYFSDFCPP
Sequence of Cyclin-dependent kinase 5/CDK5 activator 1 (Q15078 whole entry, further chain): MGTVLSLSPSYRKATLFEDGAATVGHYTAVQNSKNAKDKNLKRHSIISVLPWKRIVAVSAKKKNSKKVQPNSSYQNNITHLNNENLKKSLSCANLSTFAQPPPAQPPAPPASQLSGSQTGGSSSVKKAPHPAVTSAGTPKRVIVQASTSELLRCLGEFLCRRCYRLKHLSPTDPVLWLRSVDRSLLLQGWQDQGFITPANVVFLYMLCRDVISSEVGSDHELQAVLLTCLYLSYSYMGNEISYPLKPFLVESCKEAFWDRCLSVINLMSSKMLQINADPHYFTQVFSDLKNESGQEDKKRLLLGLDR
Sequence of Dual specificity protein kinase CLK1 (P49759 whole entry): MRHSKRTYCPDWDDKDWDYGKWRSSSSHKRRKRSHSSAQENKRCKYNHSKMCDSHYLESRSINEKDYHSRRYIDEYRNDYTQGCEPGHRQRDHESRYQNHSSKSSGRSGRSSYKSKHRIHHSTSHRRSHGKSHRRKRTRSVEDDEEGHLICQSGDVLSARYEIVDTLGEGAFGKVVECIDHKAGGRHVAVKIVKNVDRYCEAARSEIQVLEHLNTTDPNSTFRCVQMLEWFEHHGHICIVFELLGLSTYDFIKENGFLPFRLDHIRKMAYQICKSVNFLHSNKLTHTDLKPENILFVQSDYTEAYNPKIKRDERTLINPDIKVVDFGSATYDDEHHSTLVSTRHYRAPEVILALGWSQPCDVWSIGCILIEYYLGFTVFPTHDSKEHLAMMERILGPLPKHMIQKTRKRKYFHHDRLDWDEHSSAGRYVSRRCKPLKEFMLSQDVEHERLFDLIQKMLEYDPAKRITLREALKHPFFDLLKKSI

By IC50 is commonly meant the concentration that gives 50% inhibition. In the case of `COc1ccc2c(c1)[nH]c1c3ccncc3cc(CN(C)C)c21`, the IC50 is above 10 µM in data set [1]; 5.4 µM in data set [2]; above 10 µM in data set [3]; 0.67 µM in data set [4]; 1400 nM in data set [5]. Also, the inhibition at 72 h, 1 µM in data set [6] (KB cells, read-out: GI) is 37%.
Regarding `COc1cncc(/C=C(\C#N)c2c[nH]c3ccc(OC)cc23)c1`, the half-maximal inhibitory concentration (IC50) is above 10 µM in data set [1]; above 10 µM in data set [2]; above 10 µM in data set [3]; above 10 µM in data set [4]; 2300 nM in data set [5].
As to `COc1ccc2[nH]cc(/C(C#N)=C/c3cnccc3C)c2c1`, the half-inhibitory concentration (IC50) in data set [1] is above 10 µM; in data set [2] it was above 10 µM; in data set [3] it was above 10 µM; in data set [4] it was 5.5 µM; in data set [5] it was 4000 nM.
For the compound `COc1ccc2c(c1)[nH]c1c3ccncc3cc(C(N)=O)c21`, the IC50 is above 10 µM in data set [1]; 4.5 µM in data set [2]; 9 µM in data set [3]; 2 µM in data set [4]; 1600 nM in data set [5].
As to `N#Cc1cc2cnccc2c2[nH]c3ccccc3c12`, the values for the half-maximal inhibitory concentration (IC50) in data set [2], in data set [3] and in data set [4] were 0.8 µM, 1 µM and 0.05 µM, respectively.
For `N#Cc1cc2cccnc2c2[nH]c3ccccc3c12`, in that order: above 10 µM, above 10 µM and above 10 µM.
For `N#C/C(=C\c1cccnc1)c1c[nH]c2ccccc12`, in that order: above 10 µM, above 10 µM and 5.5 µM.
For `N#Cc1cc2ccccc2c2[nH]c3ccccc3c12`, the half-inhibitory concentration (IC50) in data set [1] was above 10 µM; in data set [2] it was above 10 µM; in data set [3], above 10 µM; in data set [4], 2.3 µM; in data set [5] it was 1400 nM.
For the compound `N#Cc1cc2cnccc2c2[nH]c3ccc(Cl)cc3c12`, the half-inhibitory concentration (IC50) was above 10 µM in data set [1]; above 10 µM in data set [2]; above 10 µM in data set [3]; 4 µM in data set [4]; above 10000 nM in data set [5].
Regarding `N#C/C(=C\c1ccncc1)c1c[nH]c2ccccc12`, the concentration for half-maximal inhibition (IC50) in data set [2], in data set [3] and in data set [4] was above 10 µM in each case.
For the compound `COc1ccc2[nH]cc3c2c1C(C)NC(c1cccnc1)=C3C#N` (centres undefined), the IC50 in data set [1] was above 10 µM; in data set [2], 6.4 µM; in data set [3] it was above 10 µM; in data set [4], 5 µM; in data set [5], above 10000 nM.
Consider `Nc1nc2ccccc2c2cc3cnccc3cc12`, for which the IC50 in data set [1] is above 10 µM; in data set [2], above 10 µM; in data set [3], above 10 µM; in data set [4], above 10 µM; in data set [5] it was 2100 nM.
As for `N#Cc1cc2ccccn2c2nc3ccccc3c1-2`, the 50% inhibitory concentration (IC50) was above 10 µM in data set [1]; above 10 µM in data set [2]; above 10 µM in data set [3]; above 10 µM in data set [4]; above 10000 nM in data set [5].
With `COc1ccc2c(c1)[nH]c1c3c(OC)cncc3cc(C(N)=O)c21`, the IC50 in data set [1] was above 10 µM; in data set [2] it was 1.6 µM; in data set [3], above 10 µM; in data set [4], 3.3 µM; in data set [5], 1600 nM.
Take `N#C/C(=C\c1cccnc1)c1c[nH]c2ccc(F)cc12`: the IC50 in data set [1] is above 10 µM; in data set [2], above 10 µM; in data set [3] it was above 10 µM; in data set [4], 1.8 µM; in data set [5] it was 1700 nM.
With `COc1ccc2cc(-c3ccncc3)[nH]c2n1`, the concentration for half-maximal inhibition (IC50) in data set [1] is above 10 µM; in data set [2] it was above 10 µM; in data set [3], above 10 µM; in data set [4], above 10 µM; in data set [5], 2900 nM.
For the compound `COc1ccc2[nH]c3c4c(OC)cncc4cc(C#N)c3c2c1`, the half-inhibitory concentration (IC50) in data set [1] was above 10 µM; in data set [2], 0.93 µM; in data set [3], 4 µM; in data set [4], 0.6 µM; in data set [5], 56 nM. Further, the “growth inhibition (GI)” value in data set [6] (kb, 72 h, 1 µM) is listed as “Non-Toxic”.
As for `N#C/C(=C\c1ccccn1)c1c[nH]c2ccccc12`, the IC50 in data set [2], in data set [3] and in data set [4] was above 10 µM each time.
For the compound `N#C/C(=C\c1ccccc1)c1c[nH]c2ccccc12`, the IC50 in data set [2], in data set [3] and in data set [4] was above 10 µM in each case.
Take `COc1ccc2c(CC#N)c(-c3ccncc3)[nH]c2n1`: the half-inhibitory concentration (IC50) is above 10 µM in data set [1]; above 10 µM in data set [2]; above 10 µM in data set [3]; 7.3 µM in data set [4]; 1100 nM in data set [5].
For the compound `COc1ccc2c(c1)[nH]c1c(C)nccc12` [HARMINE], the IC50 in data set [1] is 1.5 µM; in data set [3] it was above 10 µM.
In the case of `COc1ccc2[nH]cc(/C(C#N)=C/c3cccnc3)c2c1`, the 50% inhibitory concentration (IC50) in data set [2] was above 10 µM; in data set [3], above 10 µM; in data set [4], 6.3 µM.
Regarding `COc1cccc2[nH]cc(/C(C#N)=C/c3cccnc3)c12`, the IC50 in data set [1] is above 10 µM; in data set [2], above 10 µM; in data set [3], above 10 µM; in data set [4] it was 6 µM; in data set [5], 3000 nM.
For the compound `N#C/C(=C/c1cccnc1)c1c[nH]c2ccccc12`, the half-maximal inhibitory concentration (IC50) in data set [2] was above 10 µM; in data set [3], above 10 µM; in data set [4] it was above 10 µM; in data set [5], above 10000 nM.
As for `COc1cccc2c(/C(C#N)=C/c3cccnc3)c[nH]c12`, the half-maximal inhibitory concentration (IC50) in data set [1] is above 10 µM; in data set [2], above 10 µM; in data set [3], above 10 µM; in data set [4] it was 1.2 µM; in data set [5] it was 1500 nM.
As for `COc1ccc2[nH]cc(/C(C#N)=C(\N)c3cccnc3)c2c1`, the concentration for half-maximal inhibition (IC50) in data set [1] is above 10 µM; in data set [2], above 10 µM; in data set [3] it was above 10 µM; in data set [4], above 10 µM; in data set [5] it was above 10000 nM.
For the compound `N#Cc1cc2ncccc2c2[nH]c3ccccc3c12`, the IC50 was above 10 µM in data set [1]; above 10 µM in data set [2]; above 10 µM in data set [3]; 10 µM in data set [4]; above 10000 nM in data set [5].
As for `COc1ccc2c(/C(C#N)=C/c3cccnc3)c[nH]c2c1`, the IC50 in data set [1] is above 10 µM; in data set [2], above 10 µM; in data set [3], above 10 µM; in data set [4], 1.6 µM; in data set [5], 1300 nM.
On to `N#C/C(=C\c1cccnc1)c1c[nH]c2ccc(Cl)cc12`, for which the IC50 in data set [1] is above 10 µM; in data set [2] it was above 10 µM; in data set [3], above 10 µM; in data set [4], 3.3 µM; in data set [5], 2000 nM.
